The results in this text go back to US10172830B2, “Pyrazolone compounds having human neutrophil elastase inhibitory properties” (CHIESI FARMACEUTICI S.P.A., priority 2016, dated 2019).

For the assay, the target named is T1, human neutrophil elastase (HNE) (Homo sapiens, UniProt P08246).
T1 construct: purchased Sigma E8140
T1 sequence (P08246 30-247 limits assumed): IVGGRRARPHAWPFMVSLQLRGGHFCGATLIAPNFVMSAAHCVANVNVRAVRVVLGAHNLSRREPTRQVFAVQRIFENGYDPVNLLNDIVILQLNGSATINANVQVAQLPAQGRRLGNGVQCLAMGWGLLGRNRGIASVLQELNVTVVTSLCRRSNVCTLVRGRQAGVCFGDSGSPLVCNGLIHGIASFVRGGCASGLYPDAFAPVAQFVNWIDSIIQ
Nature of the assay: HNE enzyme assay (human neutrophil elastase enzyme activity assay). In kind it is biochemical. Conditions: human leukocyte elastase 0.00072 U/mL; substrate MeOSuc-Ala-Ala-Pro-Val-AMC 100 μM; 25° C. for 30 minutes; at least two separate experiments; read-out: HNE inhibition (HNE enzyme inhibition, IC50 values). The method in brief:
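Human leukocyte elastase (0.00072 U/mL) with 100 μM MeOSuc-AAPV-AMC in Tris/NaCl/CaCl2/Brij-35 buffer, pH 7.5, 1% DMSO, 30 min at 25 °C; stopped with soybean trypsin inhibitor. AMC fluorescence (380/460 nm) as % inhibition of control; IC50 from dose-response curves, ≥2 experiments.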

As usually defined, the IC50 is the point on the concentration scale where inhibition reaches its midpoint. For `C[C@H](NC(=O)c1c(-c2ccnn2-c2ccc(C#N)cc2)n(C)n(-c2cccc(C(F)(F)F)c2)c1=O)C(=O)N(C)C1CC[N+](C)(C)CC1` [Example 56, 4-[((S)-2-{[2′-(4-Cyano-phenyl)-2-methyl-5-oxo-1-(3-trifluoromethyl-phenyl)-2,5-dihydro-1H,2′H-[3,3′]bipyrazolyl-4-carbonyl]-amino}-propionyl)-methyl-amino]-1,1-dimethyl-piperidinium benzene sulphonate], the IC50 is under 1 nM.

For `Cn1c(-c2ccnn2-c2ccc(C#N)cc2)c(C(=O)NC2(C(=O)NCC[N+](C)(C)C)CCCC2)c(=O)n1-c1cccc(C(F)(F)F)c1` [Example 57, {2-[(1-{[2′-(4-Cyano-phenyl)-2-methyl-5-oxo-1-(3-trifluoromethyl-phenyl)-2,5-dihydro-1H,2′H-[3,3′]bipyrazolyl-4-carbonyl]-amino}-cyclopentanecarbonyl)-amino]-ethyl}-trimethyl-ammonium benzene sulphonate], the IC50 is under 1 nM.

Turning to `Cn1c(-c2ccnn2-c2ccc(C#N)cc2)c(C(=O)N[C@H]2CC[C@H](C(=O)NC3CC[N+](C)(C)CC3)CC2)c(=O)n1-c1cccc(C(F)(F)F)c1` [Example 58, 4-[(4-{[2′-(4-Cyano-phenyl)-2-methyl-5-oxo-1-(3-trifluoromethyl-phenyl)-2,5-dihydro-1H,2′H-[3,3′]bipyrazolyl-4-carbonyl]-amino}-cyclohexanecarbonyl)-amino]-1,1-dimethyl-piperidinium benzene sulphonate], the IC50 is under 1 nM.

As for `Cn1c(-c2ccnn2-c2ccc(C#N)cc2)c(C(=O)N[C@H]2CC[C@H](C(=O)OC3CC[N+](C)(C)CC3)CC2)c(=O)n1-c1cccc(C(F)(F)F)c1` [Example 59, 4-(Trans-4-{[2′-(4-cyano-phenyl)-2-methyl-5-oxo-1-(3-trifluoromethyl-phenyl)-2,5-dihydro-1H,2′H-[3,3′]bipyrazolyl-4-carbonyl]-amino}-cyclohexanecarbonyloxy)-1,1-dimethyl-piperidinium benzene sulphonate], the IC50 was under 1 nM.

In the case of `Cn1c(-c2ccnn2-c2ccc(C#N)cc2)c(C(=O)N[C@H]2CC[C@H](C(=O)N3CCC([N+](C)(C)C)CC3)CC2)c(=O)n1-c1cccc(C(F)(F)F)c1` [Example 60, [1-(4-{[2′-(4-Cyano-phenyl)-2-methyl-5-oxo-1-(3-trifluoromethyl-phenyl)-2,5-dihydro-1H,2′H-[3,3′]bipyrazolyl-4-carbonyl]-amino}-cyclohexanecarbonyl)-piperidin-4-yl]-trimethyl-ammonium benzene sulphonate], the IC50 is under 1 nM.

As to `CN(CC[N+](C)(C)C)C(=O)C1(NC(=O)c2c(-c3ccnn3-c3ccc(C#N)cc3)n(C)n(-c3cccc(C(F)(F)F)c3)c2=O)CCCC1` [Example 61, {2-[(1-{[2′-(4-Cyano-phenyl)-2-methyl-5-oxo-1-(3-trifluoromethyl-phenyl)-2,5-dihydro-1H,2′H-[3,3′]bipyrazolyl-4-carbonyl]-amino}-cyclopentanecarbonyl)-methyl-amino]-ethyl}-trimethyl-ammonium benzene sulphonate], the IC50 was under 1 nM.

With `Cn1c(-c2ccnn2-c2ccc(C#N)cc2)c(C(=O)N[C@H]2CC[C@H](OC(=O)C[N+](C)(C)C)CC2)c(=O)n1-c1cccc(C(F)(F)F)c1` [Example 62, (Trans-4-{[2′-(4-cyano-phenyl)-2-methyl-5-oxo-1-(3-trifluoromethyl-phenyl)-2,5-dihydro-1H,2′H-[3,3′]bipyrazolyl-4-carbonyl]-amino}-cyclohexyloxycarbonylmethyl)-trimethyl-ammonium benzene sulphonate], the IC50 is under 1 nM.

Take `Cn1c(-c2ccnn2-c2ccc(C#N)cc2)c(C(=O)NC2CCN(C(=O)CC[N+](C)(C)C)CC2)c(=O)n1-c1cccc(C(F)(F)F)c1` [Example 63, 3-(4-{[2′-(4-Cyano-phenyl)-2-methyl-5-oxo-1-(3-trifluoromethyl-phenyl)-2,5-dihydro-1H,2′H-[3,3′]bipyrazolyl-4-carbonyl]-amino}-piperidin-1-yl)-3-oxo-propyl]-trimethyl-ammonium benzene sulphonate]: the IC50 was under 1 nM.

As to `Cn1c(-c2ccnn2-c2ccc(C#N)cc2)c(C(=O)NC2(C)CCN(C(=O)C[N+](C)(C)C)CC2)c(=O)n1-c1cccc(C(F)(F)F)c1` [Example 64, [2-(4-{[2′-(4-Cyano-phenyl)-2-methyl-5-oxo-1-(3-trifluoromethyl-phenyl)-2,5-dihydro-1H,2′H-[3,3′]bipyrazolyl-4-carbonyl]-amino}-4-methyl-piperidin-1-yl)-2-oxo-ethyl]-trimethyl-ammonium benzene sulphonate], the IC50 was under 1 nM.

For the compound `Cn1c(-c2ccnn2-c2ccc(C#N)cc2)c(C(=O)N[C@H]2CC[C@H](C(=O)OCC[N+](C)(C)C)CC2)c(=O)n1-c1cccc(C(F)(F)F)c1` [Example 65, [2-(Trans-4-{[2′-(4-cyano-phenyl)-2-methyl-5-oxo-1-(3-trifluoromethyl-phenyl)-2,5-dihydro-1H,2′H-[3,3′]bipyrazolyl-4-carbonyl]-amino}-cyclohexanecarbonyloxy)-ethyl]-trimethyl-ammonium benzene sulphonate], the IC50 was under 1 nM.

`C[C@H](NC(=O)c1c(-c2ccnn2-c2ccc(C#N)cc2)n(C)n(-c2cccc(C(F)(F)F)c2)c1=O)C(=O)N1CCC[N+](C)(C)CC1` [Example 66, 4-((S)-2-{[2′-(4-Cyano-phenyl)-2-methyl-5-oxo-1-(3-trifluoromethyl-phenyl)-2,5-dihydro-1H,2′H-[3,3′]bipyrazolyl-4-carbonyl]-amino}-propionyl)-1,1-dimethyl-[1,4]diazepan-1-ium benzene sulphonate]: the IC50 was under 1 nM.

With `Cn1c(-c2ccnn2-c2ccc(C#N)cc2)c(C(=O)N[C@H]2CC[C@H](c3ncc(C[N+](C)(C)C)o3)CC2)c(=O)n1-c1cccc(C(F)(F)F)c1` [Example 67, [2-(Trans-4-{[2′-(4-Cyano-phenyl)-2-methyl-5-oxo-1-(3-trifluoromethyl-phenyl)-2,5-dihydro-1H,2′H-[3,3′]bipyrazolyl-4-carbonyl]-amino}-cyclohexyl)-oxazol-5-ylmethyl]-trimethyl-ammonium benzene sulphonate], the IC50 is under 1 nM.

Regarding `Cn1c(-c2ccnn2-c2ccc(C#N)cc2)c(C(=O)N[C@H]2C[C@H](c3ncc(C[N+](C)(C)C)o3)C2)c(=O)n1-c1cccc(C(F)(F)F)c1` [Example 68, [2-(Trans-3-{[2′-(4-cyano-phenyl)-2-methyl-5-oxo-1-(3-trifluoromethyl-phenyl)-2,5-dihydro-1H,2′H-[3,3′]bipyrazolyl-4-carbonyl]-amino}-cyclobutyl)-oxazol-5-ylmethyl]-trimethyl-ammonium benzene sulphonate], the IC50 is under 1 nM.

With `Cn1c(-c2ccnn2-c2ccc(C#N)cc2)c(C(=O)N[C@H]2CC[C@H](C[n+]3ccccc3)CC2)c(=O)n1-c1cccc(C(F)(F)F)c1` [Example 69, 1-(4-{[2′-(4-Cyano-phenyl)-2-methyl-5-oxo-1-(3-trifluoromethyl-phenyl)-2,5-dihydro-1H,2′H-[3,3′]bipyrazolyl-4-carbonyl]-amino}-cyclohexylmethyl)-pyridinium bromide], the IC50 is under 1 nM.

Take `Cn1cc[n+](C[C@H]2CC[C@H](NC(=O)c3c(-c4ccnn4-c4ccc(C#N)cc4)n(C)n(-c4cccc(C(F)(F)F)c4)c3=O)CC2)c1` [Example 70, 1-(4-{[2′-(4-Cyano-phenyl)-2-methyl-5-oxo-1-(3-trifluoromethyl-phenyl)-2,5-dihydro-1H,2′H-[3,3′]bipyrazolyl-4-carbonyl]-amino}-cyclohexylmethyl)-3-methyl-3H-imidazol-1-ium bromide]: the IC50 is under 1 nM.

Consider `CCOC(=O)c1c(-c2ccnn2-c2ccc(C#N)cc2)n(CC)n(-c2cccc(C(F)(F)F)c2)c1=O` [Example 71, 2′-(4-Cyano-phenyl)-2-ethyl-5-oxo-1-(3-trifluoromethyl-phenyl)-2,5-dihydro-1H,2′H-[3,3′]bipyrazolyl-4-carboxylic acid ethyl ester], for which the IC50 was under 1 nM.

On to `Cn1c(-c2nccn2-c2ccc(C#N)cc2)c(C(=O)NC2CCCC2)c(=O)n1-c1cccc(C(F)(F)F)c1` [Example 72, 5-[1-(4-Cyano-phenyl)-1H-imidazol-2-yl]-1-methyl-3-oxo-2-(3-trifluoromethyl-phenyl)-2,3-dihydro-1H-pyrazole-4-carboxylic acid cyclopentyl-amide], for which the IC50 was under 1 nM.
